Measurements published in patent US20210283117A1, “PROPHYLACTIC OR THERAPEUTIC AGENT FOR PROSTATE CANCER” (KEIO UNIVERSITY, priority 2018, published 2021).

Tests used:
DU145 cell lines [1] = assay: In vitro analysis of cabazitaxel resistance, number of living cells (WST-1); type: cell-based; settings: Homo sapiens, DU-145, 24 hours
DU145CR cell lines [2] = assay: as above; type: cell-based; settings: 24 hours
Experimental: DU145CR cell lines were established by culturing DU145 cell lines in the presence of 0.2 nM cabazitaxel (manufactured by Carbosynth Limited) for about 2 years while gradually increasing the cabazitaxel concentration to 3 nM.

DU145CR cell lines [3] = assay: In vivo analysis of cabazitaxel resistance, subcutaneous tumor model mice (DU145CR vs DU145); settings: cabazitaxel 10 mg/kg single intraperitoneal dose; 12 days after administration
Excerpt: The 1×10^6 established DU145CR cell lines and 1×10^6 DU145 cell lines were subcutaneously inoculated to castrated male nude mice (BALB/C), respectively, to prepare subcutaneous tumor model mice (DU145CR mice and DU145 mice). When the tumor size reached about 200 mm^3, the subcutaneous tumor model mice were divided into four groups (DU145 mouse group, cabazitaxel administration DU145 mouse group, DU145CR mouse group and cabazitaxel administration DU145CR mouse group), and to the cabazitaxel administration DU145 mouse group and the cabazitaxel administration DU145CR mouse group (n=5 for each group), cabazitaxel (manufactured by Carbosynth Limited) was intraperitoneally administered in a single dose of 10 mg/kg (body weight). Cabazitaxel was not administered to the DU145 mouse group and the DU145CR mouse group (n=5 for each group). Immediately after oral administration (day 0) and 4 days, 8 days and 12 days after the oral administration, tumor volumes were measured and an average value was calculated.

DU145 cell lines [4] = assay: Antitumor effect on CRPC model mice, tumor volume; type: in vivo
Excerpt: 1×10^6 metastatic CRPC cell lines (DU145 cell lines) were subcutaneously inoculated to castrated male nude mice (BALB/C) to prepare subcutaneous tumor model mice. When the tumor size reached about 100 mm^3, the subcutaneous tumor model mice (CRPC model mice) were divided into three groups (control group, cabazitaxel administration group and cloperastine administration group). To the cloperastine administration group (n=5), a cloperastine hydrochloride (manufactured by Sigma-Aldrich Co. LLC) was orally administered daily at a dose of 12.5 mg/kg (body weight) per day in terms of cloperastine (“cloperastine administration group” in FIG. 7A). To the cabazitaxel administration group (n=5), cabazitaxel (manufactured by Carbosynth Limited) was intraperitoneally administered in a single dose of 10 mg/kg (body weight) (“cabazitaxel administration group” in FIG. 7A). On the other hand, any of the cloperastine hydrochloride and cabazitaxel was not administered to the control group (n=5) (control group in FIG. 7A).
The 1×10^6 DU145CR cell lines established in Example 5 were subcutaneously inoculated to castrated male nude mice (BALB/C) to prepare subcutaneous tumor model mice (cabazitaxel-resistant CRPC mice). When the tumor size reached about 100 mm^3, the subcutaneous tumor model mice were divided into three groups (control group, cabazitaxel administration group and cloperastine administration group). To the cloperastine administration group (n=5), a cloperastine hydrochloride (manufactured by Sigma-Aldrich Co. LLC) was orally administered daily at a dose of 12.5 mg/kg (body weight) per day in terms of cloperastine (“cloperastine administration group” in FIG. 7B). […] For the CRPC model mice and the cabazitaxel-resistant CRPC mice, tumor volumes were measured and an average value was calculated immediately after oral administration of the cloperastine hydrochloride (day 0) and 4 days, 8 days, 12 days and 16 days after the oral administration.

DU145CR cell lines [5] = assay: Antitumor effect on cabazitaxel-resistant CRPC mice, tumor volume; type: in vivo
Excerpt: The 1×10^6 DU145CR cell lines established in Example 5 were subcutaneously inoculated to castrated male nude mice (BALB/C) to prepare subcutaneous tumor model mice (cabazitaxel-resistant CRPC mice). When the tumor size reached about 100 mm^3, the subcutaneous tumor model mice were divided into three groups (control group, cabazitaxel administration group and cloperastine administration group). To the cloperastine administration group (n=5), a cloperastine hydrochloride (manufactured by Sigma-Aldrich Co. LLC) was orally administered daily at a dose of 12.5 mg/kg (body weight) per day in terms of cloperastine (“cloperastine administration group” in FIG. 7B). To the cabazitaxel administration group (n=5), cabazitaxel (manufactured by Carbosynth Limited) was intraperitoneally administered in a single dose of 10 mg/kg (body weight) (“cabazitaxel administration group” in FIG. 7B). On the other hand, any of the cloperastine hydrochloride and cabazitaxel was not administered to the control group (n=5) (“control group” in FIG. 7B). For the CRPC model mice and the cabazitaxel-resistant CRPC mice, tumor volumes were measured and an average value was calculated immediately after oral administration of the cloperastine hydrochloride (day 0) and 4 days, 8 days, 12 days and 16 days after the oral administration.

DU145CR cell lines [6] = assay: Antitumor effect by use in combination with cabazitaxel, cabazitaxel-resistant CRPC mice, tumor volume; type: in vivo
Excerpt: The 5×10^6 DU145CR cell lines established in Example 5 were subcutaneously inoculated to castrated male nude mice (BALB/C) to prepare subcutaneous tumor model mice (cabazitaxel-resistant CRPC mice). When the tumor size reached about 100 mm^3, the subcutaneous tumor model mice were divided into four groups (control group, cabazitaxel administration group, cloperastine administration group and cloperastine+cabazitaxel administration group). To the cabazitaxel administration group (n=5), cabazitaxel (manufactured by Carbosynth Limited) was intraperitoneally administered in a single dose of 10 mg/kg (body weight). To the cloperastine administration group (n=5), a cloperastine hydrochloride (manufactured by Sigma-Aldrich Co. LLC) was orally administered daily at a dose of 12.5 mg/kg (body weight) per day in terms of cloperastine. To the cloperastine+cabazitaxel administration group (n=5), the cloperastine hydrochloride was orally administered daily at a dose of 12.5 mg/kg (body weight) per day in terms of cloperastine, and cabazitaxel (manufactured by Carbosynth Limited) was intraperitoneally administered in a single dose of 10 mg/kg (body weight). […] For the cabazitaxel-resistant CRPC mice, tumor volumes were measured and an average value was calculated immediately after oral administration (day 0) and 4 days, 8 days and 12 days after the oral administration.

DU145 cell lines [7] = assay: Cell growth suppressive effect, number of living cells (Premix WST-1), Example 2; type: cell-based; settings: cloperastine 0.1, 1, 10 μM, 24 hours, vs culture without cloperastine
Experimental: (§1) For confirming that the cloperastine species has a cell growth suppressive effect on metastatic CRPC, metastatic CRPC cell lines (DU145 cell lines and PC3 cell lines) were cultured in the presence of the cloperastine species, and the cell growth property was analyzed.
(§2) DU145 cell lines and PC3 cell lines (these cell lines were obtained from ATCC [American Type Culture Collection]) were cultured on a 96-well plate for 24 hours. […] As a control, an experiment was also conducted in which DU145 cell lines and PC3 cell lines were cultured in a culture solution free of a cloperastine hydrochloride.

PC3 cell lines [8] = assay: as above; type: cell-based; settings: cloperastine 0.1, 1, 10 μM, 24 hours, vs culture without cloperastine
Experimental: as §1, §2

DU145 cell lines [9] = assay: EMT-related gene mRNA expression, quantitative PCR; type: cell-based; settings: 10 μM cloperastine, 24 hours, vs control group
Experimental: (§3) For confirming that the cloperastine species has a suppressive effect on EMT in metastatic CRPC cells, metastatic CRPC cell lines (DU145 cell lines and PC3 cell lines) were cultured in the presence of the cloperastine species, and the gene expression profiles of EMT-related factors were analyzed.
(§4) DU145 cell lines and PC3 cell lines were cultured for 24 hours in the presence of 10 μM cloperastine or without cloperastine (cloperastine treatment group and control group, respectively), and mRNA was then extracted with “RNeasy Mini kit” (manufactured by QIAGEN Company). From the extracted mRNA, cDNA was synthesized with “PrimeScript RT reagent Kit” (manufactured by Takara Bio Inc.). For analyzing the mRNA expression levels of genes encoding six kinds of factors (E-cadherin, vimentin, “Zinc finger protein SNAI1”, “Zinc finger protein SNAI2”, “Zinc finger E-box-binding homeobox 1” and “Zinc finger E-box-binding homeobox 2”) (CDH1 gene, VIM gene, SNAI1 gene, SNAI2 gene, ZEB1 gene and ZEB2 gene, respectively), quantitative PCR analysis was performed with the primer and TaqMan probe sets (TaqMan Gene Expression Assays) (manufactured by Applied Biosystems Company) shown in Table 1 below, and CFX96 Real-Time System (manufactured by Bio-Rad Laboratories, Inc).

PC3 cell lines [10] = assay: EMT-related gene mRNA expression, quantitative PCR; type: cell-based; settings: 10 μM cloperastine, 24 hours, vs control group
Experimental: as §3, §4

DU145 cell lines [11] = assay: Invasion assay, xCELLigence, Matrigel basement membrane matrix; type: cell-based; settings: 1 μM cloperastine hydrochloride, 0 to 48 hours, vs control group
Experimental: For confirming the anti-prostate cancer effect of the cloperastine species, DU145 cell lines were cultured in the presence of the cloperastine species, and the invasiveness of the cell lines was analyzed (invasion assay).
To a culture solution added to each well of Real-Time Cell Analyzer xCELLigence (manufactured by ACEA Biosciences Inc.), a cloperastine hydrochloride (manufactured by Sigma-Aldrich Co. LLC) was added to 1 μM, and 4.0×10^4 DU145 cell lines were added. The cell lines were then cultured, and the number of cells passing through a Matrigel basement membrane matrix (manufactured by Corning Incorporated) was measured over time (0 to 48 hours) (cloperastine treatment group). As a control for comparison, DU145 cell lines were cultured in a culture solution free of a cloperastine hydrochloride, and the same experiment was conducted (control group).

normal cells = assay: Impact on growth of normal cells; type: cell-based; settings: 1 μM
C4-2AT6 cell lines = assay: Cell growth suppressive effect on enzalutamide-resistant prostate cancer cell lines (WST-1), Example 7; type: cell-based; settings: cloperastine 0.1, 1, 10 μM, vs culture without cloperastine
Experimental: as §2
(§5) For confirming that the cloperastine species has a cell growth suppressive effect on enzalutamide-resistant prostate cancer and cabazitaxel-resistant prostate cancer, enzalutamide-resistant prostate cancer cell lines (C4-2AT6 cell lines) and cabazitaxel-resistant prostate cancer cell lines (DU145CR cell lines) were used to analyze the cell growth property in the presence of cloperastine species in accordance with the method described in Example 2.

DU145CR cell lines [12] = assay: Cell growth suppressive effect on cabazitaxel-resistant prostate cancer cell lines (WST-1), Example 7; type: cell-based; settings: cloperastine 0.1, 1, 10 μM, vs culture without cloperastine
Experimental: as §2, §5

DU145 cell lines [13] = assay: Ki67 immunohistological staining; type: cell-based; settings: 10 μM, 24 hours, vs culture without cloperastine
Experimental: (§6) For confirming that the cloperastine species has a cell growth suppressive effect and an apoptosis inducing effect on CRPC and cabazitaxel-resistant CRPC, metastatic CRPC cell lines (DU145 cell lines and PC3 cell lines) were cultured in the presence of the cloperastine species, and analysis was performed by an immunohistological staining method using an antibody to a cell growth marker (Ki67), and a TUNEL (TdT-mediateddUTPnickendlabeling) method.
(§7) DU145 cell lines and DU145CR cell lines were cultured on 96-well plates, respectively, for 24 hours, and to a culture solution, a cloperastine hydrochloride (manufactured by Sigma-Aldrich Co. LLC) was added to 10 μM. The cell lines were further cultured for 24 hours, and the cells were then fixed with 4% paraformaldehyde. The fixed cells were subjected to blocking treatment with a 1% BSA (bovine serum albumin) solution, and primary antibody reaction treatment with a Ki67 antibody (manufactured by Dako Company) was performed overnight at 4° C. […] The immunohistological-stained cell sample was observed under a phase-contrast microscope (see FIG. 8A), and the ratio of Ki67-positive cells was calculated. […] The cell sample stained by the TUNEL method was observed under a phase-contrast microscope (see FIG. 9A), and the ratio of TUNEL-positive cells (cells undergoing apoptosis) was calculated.

DU145CR cell lines [14] = assay: Ki67 immunohistological staining; type: cell-based; settings: 10 μM, 24 hours, vs culture without cloperastine
Experimental: as §6, §7

DU145 cell lines [15] = assay: TUNEL method (apoptosis); type: cell-based; settings: 10 μM, 24 hours, vs culture without cloperastine
Experimental: as §6, §7

DU145CR cell lines [16] = assay: TUNEL method (apoptosis); type: cell-based; settings: 10 μM, 24 hours, vs culture without cloperastine
Experimental: as §6, §7

Compound: CO[C@H]1C(=O)[C@]2(C)[C@@H](OC)C[C@H]3OC[C@@]3(OC(C)=O)[C@H]2[C@H](OC(=O)c2ccccc2)[C@]2(O)C[C@H](OC(=O)[C@H](O)[C@@H](NC(=O)OC(C)(C)C)c3ccccc3)C(C)=C1C2(C)C [cabazitaxel]
- IC50 (DU145 cell lines [1]): 3.8 nM
- IC50 (DU145CR cell lines [2]): 11 nM
- tumor volume, cabazitaxel administration DU145CR mouse group vs cabazitaxel administration DU145 mouse group (DU145CR cell lines [3]): about twice
- tumor volume vs control group (DU145 cell lines [4]; cabazitaxel 10 mg/kg single intraperitoneal dose, day 16, p<0.01): statistically significant difference between the cabazitaxel administration group and the control group
- tumor volume (DU145CR cell lines [5]; cabazitaxel 10 mg/kg single intraperitoneal dose): hardly enabled suppression of an increase in tumor volume
- tumor volume vs control group (DU145CR cell lines [6]; cabazitaxel 10 mg/kg single i.p., day 12, p>0.05): no statistically significant difference

Compound: Clc1ccc([C@H](OCCN2CCCCC2)c2ccccc2)cc1 (racemic) [cloperastine, 1-{2-[(RS)-(4-chlorophenyl) (phenyl)methoxy]ethyl}piperidine]
- number of living cells (DU145 cell lines [7]): significantly smaller number of living cells in a concentration-dependent manner
- number of living cells (PC3 cell lines [8]): significantly smaller number of living cells in a concentration-dependent manner
- expression levels of mRNA encoding vimentin, SNAI1, SNAI2, ZEB1, ZEB2 (DU145 cell lines [9]): all lower
- expression level of mRNA encoding E-cadherin (PC3 cell lines [10]; PC3 (FIG. 2B)): higher
- expression levels of mRNA encoding vimentin, SNAI1, SNAI2, ZEB1, ZEB2 (PC3 cell lines [10]; PC3): all lower
- invasion of cells (DU145 cell lines [11]): significantly suppressed
- impact on growth of normal cells (normal cells): no impact on growth of normal cells
- number of living cells (C4-2AT6 cell lines): significantly smaller number of living cells in a concentration-dependent manner
- number of living cells (DU145CR cell lines [12]): significantly smaller number of living cells in a concentration-dependent manner
- tumor volume vs control group (DU145 cell lines [4]; 12.5 mg/kg per day oral, daily): smaller than the tumor volume in the control group
- tumor volume decrease level vs cabazitaxel administration group (DU145 cell lines [4]; cloperastine 12.5 mg/kg per day oral vs cabazitaxel 10 mg/kg single i.p.): higher than the tumor volume decrease level in the cabazitaxel administration group
- tumor volume (DU145CR cell lines [5]; 12.5 mg/kg per day oral, daily): considerably reduced the tumor volume
- ratio of Ki67-positive cells (DU145 cell lines [13]): lower ratio of Ki67-positive cells
- ratio of Ki67-positive cells (DU145CR cell lines [14]): lower ratio of Ki67-positive cells
- ratio of TUNEL-positive cells (DU145 cell lines [15]): higher ratio of TUNEL-positive cells
- ratio of TUNEL-positive cells (DU145CR cell lines [16]): higher ratio of TUNEL-positive cells
- tumor volume vs control group (DU145CR cell lines [6]; cloperastine 12.5 mg/kg per day oral, day 12, p<0.001): statistically significant difference between the cloperastine administration group and the control group
